Measured values published in DBAASP.
Converted amounts (≈) assume the structure as drawn. Each block holds one compound with its values, some of them ahead of it.

Legend:
Test in all cases: ≥ marks a high value that may be exact or a test limit, other limits are often not marked, values filed in µg/mL are converted to µM
[1] = system: Acinetobacter baumannii ATCC 19606
[2] = system: Bordetella bronchiseptica CUN 11844-99
[3] = system: Escherichia coli ATCC 25922
[4] = system: Pseudomonas aeruginosa ATCC 27853
[5] = system: Pseudomonas aeruginosa CUN 4158-02
[6] = system: Staphylococcus aureus ATCC 25923
[7] = system: Staphylococcus aureus ATCC 43300
[8] = system: Staphylococcus aureus CUN 3792-99
[9] = system: Stenotrophomonas maltophilia CUN 3998-00
[10] = system: Batrachochytrium dendrobatidis JEL-197
[11] = system: Escherichia coli ATCC 25726
[12] = system: Acinetobacter baumannii NM8
[13] = system: Candida albicans ATCC 90028
[14] = system: Klebsiella pneumoniae ATCC 700603
[15] = system: Staphylococcus epidermidis RP62A/1
[16] = system: Staphylococcus epidermidis RP62A
[17] = system: Stenotrophomonas maltophilia B32/4
[18] = system: Bacillus subtilis ATCC 6633
[19] = system: Candida albicans ATCC 20032
[20] = system: Bacillus anthracis Sterne 34F2
[21] = system: Bacillus subtilis var. niger ATCC 9372
Escherichia coli K91BK = system: Escherichia coli K91BK
[22] = system: Acinetobacter baumannii NM35
[23] = system: Acinetobacter baumannii I NM8
[24] = system: Candida albicans CIB 45437
[25] = system: Escherichia coli CIB 84492
[26] = system: Staphylococcus aureus CIB 85462

Structure (SMILES): CC[C@H](C)[C@H](NC(=O)CN)C(=O)N[C@@H](CC(C)C)C(=O)N[C@@H](CC(=O)O)C(=O)N[C@H](C(=O)N[C@@H](Cc1ccccc1)C(=O)N[C@@H](CCCCN)C(=O)NCC(=O)N[C@H](C(=O)N[C@@H](C)C(=O)N[C@@H](CCCCN)C(=O)NCC(=O)N[C@H](C(=O)N[C@@H](C)C(=O)N[C@@H](CCCCN)C(=O)N[C@@H](CC(=O)O)C(=O)N[C@@H](CC(C)C)C(=O)N[C@@H](C)C(=O)N[C@H](C(=O)N[C@@H](Cc1cnc[nH]1)C(=O)N[C@@H](CCSC)C(=O)N[C@@H](CC(C)C)C(=O)N[C@@H](CCC(=O)O)C(=O)N[C@@H](CC(N)=O)C(=O)N[C@@H](CC(C)C)C(=O)N[C@@H](CCCCN)C(=O)N[C@H]1CSSC[C@@H](C(=O)O)NC(=O)CNC(=O)[C@H]([C@@H](C)O)NC(=O)[C@H](CCSC)NC(=O)[C@H](CCCCN)NC1=O)C(C)C)C(C)C)C(C)C)[C@@H](C)O [GILDTFKGVAKGVAKDLAVHMLENLKCKMTGC]
MIC [10]: ≥ 50 µM
MIC [11]: ≥ 50 µM
MIC [6]: 100 µM (≈ 339 µg/mL)

Structure (SMILES): CC[C@H](C)[C@H](NC(=O)CN)C(=O)NCC(=O)N[C@H](C(=O)N[C@@H](CCCCN)C(=O)N[C@@H](Cc1ccccc1)C(=O)N[C@@H](CC(C)C)C(=O)NCC(=O)NCC(=O)N[C@H](C(=O)N[C@@H](CCCCN)C(=O)N[C@H](C(=O)N[C@@H](C)C(=O)N[C@@H](CC(C)C)C(=O)N[C@@H](CCCCN)C(=O)NCC(=O)N[C@@H](C)C(=O)N[C@@H](CC(C)C)C(=O)N[C@@H](CCCCN)C(=O)N[C@@H](CCC(=O)O)C(=O)N[C@@H](CC(C)C)C(=O)N[C@@H](C)C(=O)N[C@@H](CO)C(=O)N[C@H](C(=O)N[C@@H](Cc1ccc(O)cc1)C(=O)N[C@H](C(=O)N[C@@H](CC(N)=O)C(N)=O)C(C)C)[C@@H](C)O)[C@@H](C)O)C(C)C)[C@@H](C)O [GIGTKFLGGVKTALKGALKELASTYVN]
MIC [18]: 27.4 µM (≈ 75 µg/mL)
MIC [19]: 27.4 µM (≈ 75 µg/mL)
MIC [3]: 3.43 µM (≈ 9.4 µg/mL)
MIC [6]: 1.72 µM (≈ 4.7 µg/mL)

Structure (SMILES): CC(=O)N[C@@H](CCCN=C(N)N)C(=O)N[C@@H](CCCN=C(N)N)C(=O)N[C@@H](CCCN=C(N)N)C(=O)N[C@@H](C)C(=O)N[C@@H](C)C(=O)N[C@@H](Cc1ccccc1)C(=O)N[C@@H](C)C(=O)N[C@@H](C)C(=O)N[C@@H](Cc1c[nH]c2ccccc12)C(=O)N[C@@H](C)C(=O)N[C@@H](C)C(=O)N[C@@H](Cc1ccccc1)C(=O)N[C@@H](C)C(=O)N[C@@H](C)C(=O)N[C@@H](CCCN=C(N)N)C(=O)N[C@@H](CCCN=C(N)N)C(=O)N[C@@H](CCCN=C(N)N)C(N)=O [RRRAAFAAWAAFAARRR]
MIC [20]: ≥ 100 µM
MIC [21]: ≥ 50 µM
MIC (Escherichia coli K91BK): ≥ 100 µM

Structure (SMILES): CC(C)C[C@H](NC(=O)CNC(=O)CNC(=O)[C@H](CCCCN)NC(=O)[C@H](C)NC(=O)[C@H](Cc1ccccc1)NC(=O)[C@H](CCCCN)NC(=O)[C@H](CCCCN)NC(=O)[C@H](CC(C)C)NC(=O)CNC(=O)[C@H](CCC(=O)O)NC(=O)[C@H](CC(C)C)NC(=O)[C@H](C)NC(=O)[C@H](CO)NC(=O)[C@H](CO)NC(=O)[C@H](Cc1c[nH]c2ccccc12)NC(=O)[C@H](Cc1ccccc1)NC(=O)CN)C(=O)N[C@@H](CCC(=O)O)C(=O)N[C@@H](C)C(=O)N[C@@H](CC(C)C)C(=O)N[C@H](C(=O)N[C@@H](CC(N)=O)C(=O)N1CCC[C@H]1C(=O)N[C@@H](CCCCN)C(=O)O)[C@@H](C)O [GFWSSALEGLKKFAKGGLEALTNPK]
MIC [23]: 12.5 µM (≈ 33.1 µg/mL)
MIC [11]: ≥ 50 µM
MIC [14]: > 50 µM
MIC [6]: > 100 µM

Structure (SMILES): CC[C@H](C)[C@@H]1NC(=O)[C@H](C)NC(=O)[C@@H](NC(=O)[C@H](Cc2ccccc2)NC(=O)[C@@H](NC(=O)[C@@H](NC(=O)[C@@H]2CCCN2C(=O)[C@H](CC(C)C)NC(=O)[C@@H](NC(=O)[C@H](CC(N)=O)NC(=O)[C@H](C)NC(=O)[C@H](C)NC(=O)[C@@H](NC(=O)[C@H](CCCN=C(N)N)NC(=O)[C@@H](NC(=O)[C@@H](NC(=O)[C@H](C)NC(=O)[C@@H]2CCCN2C(=O)[C@H](CC(C)C)NC(=O)[C@@H](N)Cc2ccccc2)C(C)C)[C@@H](C)CC)C(C)C)C(C)C)[C@@H](C)O)C(C)C)CSSC[C@@H](C(=O)O)NC(=O)[C@H](CCCCN)NC(=O)[C@H](CCCCN)NC(=O)[C@H](CO)NC1=O [FLPAVIRVAANVLPTVFCAISKKC]
MIC [24]: ≥ 50 µM
MIC [3]: 50 µM (≈ 128 µg/mL)
MIC [25]: 25 µM (≈ 64 µg/mL)
MIC [6]: 6.25 µM (≈ 16 µg/mL)
MIC [26]: 12.5 µM (≈ 32 µg/mL)

Continued, values first:

MIC [1]: 6.06 µM (≈ 16 µg/mL)
MIC [2]: 3.03 µM (≈ 8 µg/mL)
MIC [3]: 388 µM (≈ 1020 µg/mL)
MIC [4]: 3.03 µM (≈ 8 µg/mL)
MIC [5]: 12.1 µM (≈ 32 µg/mL)
MIC [6]: 388 µM (≈ 1020 µg/mL)
MIC [7]: 6.06 µM (≈ 16 µg/mL)
MIC [8]: 6.06 µM (≈ 16 µg/mL)
MIC [9]: 24.3 µM (≈ 64 µg/mL)
Structure (SMILES): NCCCC[C@H](NC(=O)CNC(=O)[C@H](CCCCN)NC(=O)[C@H](Cc1ccccc1)NC(=O)[C@H](CCCCN)NC(=O)[C@H](Cc1c[nH]c2ccccc12)NC(=O)[C@H](Cc1ccccc1)NC(=O)[C@H](CCCN=C(N)N)NC(=O)[C@H](CCCN=C(N)N)NC(=O)[C@H](Cc1ccc(O)cc1)NC(=O)[C@H](CCCCN)NC(=O)[C@H](CCCCN)NC(=O)CN)C(=O)N[C@@H](Cc1c[nH]c2ccccc12)C(=O)N[C@@H](Cc1ccccc1)C(=O)N[C@@H](Cc1c[nH]c2ccccc12)C(=O)N[C@@H](Cc1ccccc1)C(=O)N[C@@H](Cc1c[nH]c2ccccc12)C(=O)NCC(N)=O [GKKYRRFWKFKGKWFWFWG]

MIC [12]: ≥ 64 µM
MIC [13]: ≥ 128 µM
MIC [11]: ≥ 64 µM
MIC [14]: 64 µM (≈ 104 µg/mL)
MIC [4]: 64 µM (≈ 104 µg/mL)
MIC [6]: 8 µM (≈ 13 µg/mL)
MIC [15]: 4 µM (≈ 6.5 µg/mL)
MIC [16]: 4 µM (≈ 6.5 µg/mL)
MIC [17]: ≥ 64 µM
Structure (SMILES): CC[C@H](C)[C@H](N)C(=O)N[C@@H](CC(C)C)C(=O)NCC(=O)N[C@@H](CCCCN)C(=O)N[C@@H](CC(C)C)C(=O)N[C@@H](CC(C)C)C(=O)N[C@@H](CCCCN)C(=O)N[C@H](C(=O)N[C@@H](C)C(=O)N[C@@H](C)C(=O)NCC(=O)N[C@@H](CC(C)C)C(=O)N[C@@H](CC(C)C)C(=O)N[C@@H](CO)C(=O)N[C@@H](CC(N)=O)C(=O)N[C@@H](CC(C)C)C(N)=O)[C@@H](C)O [ILGKLLKTAAGLLSNL]

MIC [22]: 20 µM (≈ 45.9 µg/mL)
MIC [12]: 10 µM (≈ 22.9 µg/mL)
MIC [13]: ≥ 40 µM
MIC [11]: 10 µM (≈ 22.9 µg/mL)
MIC [6]: > 250 µM
Structure (SMILES): CC[C@H](C)[C@H](NC(=O)CNC(=O)[C@H](CCCCN)NC(=O)[C@H](CCCCN)NC(=O)[C@H](CC(C)C)NC(=O)[C@H](CO)NC(=O)CNC(=O)[C@H](CC(C)C)NC(=O)CNC(=O)[C@H](C)NC(=O)[C@H](CCCCN)NC(=O)[C@H](Cc1ccccc1)NC(=O)[C@@H](NC(=O)[C@H](CCCCN)NC(=O)[C@H](CCCCN)NC(=O)[C@H](CC(C)C)NC(=O)CN)[C@@H](C)CC)C(=O)N[C@@H](C)C(=O)N[C@@H](C)C(=O)N[C@@H](Cc1cnc[nH]1)C(=O)N[C@H](C(=O)N[C@@H](C)C(=O)N[C@@H](CO)C(N)=O)C(C)C [GLKKIFKAGLGSLKKGIAAHVAS]
